In patent publication US12552755B2, “Cinnamic amide derivative having FXR activating effect, pharmaceutical composition containing the same as active ingredient, and method for preparing the same” (KYUNGSUNG UNIVERSITY INDUSTRY COOPERATION FOUNDATION, priority 2019, dated 2026):

biological target: T1, farnesol X receptor (FXR) (Homo sapiens, UniProt Q96RI1); assay: Farnesol X receptor (FXR) reporter gene assay (dual luciferase) in HepG2 cells; assay type: cell-based; conditions: dose 10 uM; HepG2 cells, drug treatment 24 hours; firefly/renilla luciferase ratio, Con = 1.00
T1 construct: endogenous in cells; host or cells: HepG2
T1 sequence (Q96RI1 1-486): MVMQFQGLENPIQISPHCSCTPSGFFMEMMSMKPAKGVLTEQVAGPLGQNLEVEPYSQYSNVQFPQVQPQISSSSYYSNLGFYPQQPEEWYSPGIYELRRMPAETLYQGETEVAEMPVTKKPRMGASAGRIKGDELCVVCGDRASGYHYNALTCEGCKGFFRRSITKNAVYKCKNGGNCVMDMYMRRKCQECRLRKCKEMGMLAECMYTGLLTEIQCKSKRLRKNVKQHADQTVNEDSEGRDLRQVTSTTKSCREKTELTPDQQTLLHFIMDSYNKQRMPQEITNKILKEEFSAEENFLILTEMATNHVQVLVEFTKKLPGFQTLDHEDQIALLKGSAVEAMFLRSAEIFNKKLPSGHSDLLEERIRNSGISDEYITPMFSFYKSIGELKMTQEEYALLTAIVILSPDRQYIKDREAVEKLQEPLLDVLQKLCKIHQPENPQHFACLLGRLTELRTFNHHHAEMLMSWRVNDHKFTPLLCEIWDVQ
Procedure: HepG2 cells were purchased from ATCC (Manassas, VA, USA) and cultured in Dulbecco's modified Eagle's medium (DMEM; Hyclone) containing 10% fetal bovine serum (FBS, Hyclone, Logan, UT, USA), 50 units/mL penicillin (Hyclone) and 50 μg/mL streptomycin (Hyclone). All cells were cultured to have a confluency of about 80% to 90% under the conditions of 37° C. and 5% Co2.
In order to measure FXR transcription factor activity, HepG2 cells (1×10^5 cells/well) were cultured in a 48-well cell culture plate (SPL Life Science Co., Gyeonggido, Korea) for 20 hours and then transduced using Lipofectamin L3000 (Invitrogen, San Diego, CA, USA). Luciferase is an enzyme that catalyzes light-emitting reactions. A plasmid in which the firefly luciferase gene was fused to farnesol X receptor (FXR) and a plasmid in which the renilla luciferase gene was fused to thymidine kinase (TK) were used for transduction. Reacted were 25 μL of serum and antibiotic-free Opti-MEM® (Life Technologies, Grand Island, NY) and 0.5 μL of Lipofectamin L3000 per 0.5 μg of FXR-firefly luciferase plasmid and 10 ng of TK-renilla luciferase plasmid, and the cells were reacted with the reaction mixture for 24 hours. Thereafter, DMEM medium containing 0.1% serum was treated with a drug for 24 hours. After the reaction was completed, the drug-treated culture medium was discarded, and lysis buffer was added at 0.4 ml/well to remove the cells, then the cells were dispensed into a 96-well white plate (SPL Life Science Co.), and the luminescence level was measured using the Dual-glo Luciferase Assay System (Promega, Madison, WI, USA). For the firefly luciferase activity (to see the level of FXR expression) and renilla luciferase activity (to provide a reference value by showing constant expression), the luminescence level was measured using the GloMax Multi Detection System (Promega) and then the relative ratio (firefly luciferase activity/renilla luciferase activity) was calculated.

Row | fold induction at 10 µM | Compound
1 | 2.01 | O=C(O)CNC(=O)/C=C/c1ccc(OCc2cc(F)c(F)cc2F)cc1 [KS-021, (E)-(3-(4-((2,4,5-trifluorobenzyl)oxy)phenyl)acryloyl)glycine]
2 | 1.06 | COC(=O)[C@H](Cc1ccccc1)NC(=O)/C=C/c1ccc(OCc2c(-c3ccccc3)noc2C)cc1 [KS-039, methyl (E)-(3-(4-((5-methyl-3-phenylisoxazol-4-yl)methoxy)phenyl)acryloyl)-L-phenylalaninate]
3 | 0.82 | Cc1onc(-c2ccccc2)c1COc1ccc(/C=C/C(=O)N[C@@H](C)C(=O)O)cc1 [KS-030, (E)-(3-(4-((5-methyl-3-phenylisoxazol-4-yl)methoxy)phenyl)acryloyl)-L-alanine]
4 | 2.21 | COC(=O)CCNC(=O)/C=C/c1ccc(OCc2c(-c3c(Cl)cccc3Cl)noc2C)cc1 [KS-044, methyl (E)-3-(3-(4-((3-(2,6-dichlorophenyl)-5-methylisoxazol-4-yl)methoxy)phenyl)acrylamido)propanoate]
5 | 1.28 | Cc1onc(-c2c(Cl)cccc2Cl)c1COc1ccc(/C=C/C(=O)N[C@H](C)C(=O)O)cc1 [KS-053, (E)-(3-(4-((3-(2,6-dichlorophenyl)-5-methylisoxazol-4-yl)methoxy)phenyl)acryloyl)-D-alanine]
6 | 1.65 | Cc1onc(-c2c(Cl)cccc2Cl)c1COc1ccc(/C=C/C(=O)N[C@H](C(=O)O)C(C)C)cc1 [KS-035, (E)-(3-(4-((3-(2,6-dichlorophenyl)-5-methylisoxazol-4-yl)methoxy)phenyl)acryloyl)-L-valine]
7 | 1.42 | O=C(O)CNC(=O)/C=C/c1ccc(OCc2ccccc2)cc1 [KS-014, (E)-(3-(4-(benzyloxy)phenyl)acryloyl)glycine]
8 | 1.22 | CCOC(=O)CNC(=O)/C=C/c1ccc(O)cc1 [KS-001, ethyl (E)-(3-(4-hydroxyphenyl)acryloyl)glycinate]
9 | 1.99 | O=C(O)CNC(=O)/C=C/c1ccc(OCc2ccc(-c3ccccc3)cc2)cc1 [KS-016, (E)-(3-(4-([1,1′-biphenyl]-4-ylmethoxy)phenyl)acryloyl)glycine]
10 | 1.02 | CCOC(=O)CNC(=O)/C=C/c1ccc(OCc2cccc(OC(F)(F)F)c2)cc1 [KS-007, ethyl (E)-(3-(4-((3-(trifluoromethoxy)benzyl)oxy)phenyl)acryloyl)glycinate]
11 | 1.41 | Cc1onc(-c2ccccc2)c1COc1ccc(/C=C/C(=O)N[C@@H](Cc2ccccc2)C(=O)O)cc1 [KS-042, (E)-(3-(4-((5-methyl-3-phenylisoxazol-4-yl)methoxy)phenyl)acryloyl)-L-phenylalanine]
12 | 1.34 | COC(=O)[C@@H](C)NC(=O)/C=C/c1ccc(OCc2c(-c3ccccc3)noc2C)cc1 [KS-051, methyl (E)-(3-(4-((5-methyl-3-phenylisoxazol-4-yl)methoxy)phenyl)acryloyl)-D-alaninate]
13 | 9 | CC(C)c1onc(-c2c(Cl)cccc2Cl)c1COc1ccc(/C=C/C(=O)N[C@@H](Cc2ccccc2)C(=O)O)cc1 [KS-040, (E)-(3-(4-((3-(2,6-dichlorophenyl)-5-isopropylisoxazol-4-yl)methoxy)phenyl)acryloyl)-L-phenylalanine]
14 | 3.34 | CC(C)c1onc(-c2c(Cl)cccc2Cl)c1COc1ccc(/C=C/C(=O)NCC(=O)O)cc1 [KS-022, (E)-(3-(4-((3-(2,6-dichlorophenyl)-5-isopropylisoxazol-4-yl)methoxy)phenyl)acryloyl)glycine]
15 | 10.9 | CCOC(=O)[C@H](C)NC(=O)/C=C/c1ccc(OCc2c(-c3c(Cl)cccc3Cl)noc2C(C)C)cc1 [KS-025, ethyl (E)-(3-(4-((3-(2,6-dichlorophenyl)-5-isopropylisoxazol-4-yl)methoxy)phenyl)acryloyl)-L-alaninate]
16 | 1.21 | CCOC(=O)CNC(=O)/C=C/c1ccc(OCc2ccc(F)cc2)cc1 [KS-005, ethyl (E)-(3-(4-((4-fluorobenzyl)oxy)phenyl)acryloyl)glycinate]

Row | fold induction at 10 µM | Compound
17 | 3.23 | Cc1onc(-c2c(Cl)cccc2Cl)c1COc1ccc(/C=C/C(=O)N[C@@H](Cc2ccccc2)C(=O)O)cc1 [KS-041, (E)-(3-(4-((3-(2,6-dichlorophenyl)-5-methylisoxazol-4-yl)methoxy)phenyl)acryloyl)-L-phenylalanine]
18 | 1.1 | CCOC(=O)CNC(=O)/C=C/c1ccc(OCc2ccc(OC(F)(F)F)cc2)cc1 [KS-003, ethyl (E)-(3-(4-((4-(trifluoromethoxy)benzyl)oxy)phenyl)acryloyl)glycinate]
19 | 1.93 | Cc1onc(-c2c(Cl)cccc2Cl)c1COc1ccc(/C=C/C(=O)NCC(=O)O)cc1 [KS-023, (E)-(3-(4-((3-(2,6-dichlorophenyl)-5-methylisoxazol-4-yl)methoxy)phenyl)acryloyl)glycine]
20 | 1.19 | O=C(O)CNC(=O)/C=C/c1ccc(OCc2cccc(OC(F)(F)F)c2)cc1 [KS-019, (E)-(3-(4-((3-(trifluoromethoxy)benzyl)oxy)phenyl)acryloyl)glycine]
21 | 1.5 | CCOC(=O)CNC(=O)/C=C/c1ccc(OCc2cccc([N+](=O)[O-])c2)cc1 [KS-008, ethyl (E)-(3-(4-((3-nitrobenzyl)oxy)phenyl)acryloyl)glycinate]
22 | 11.4 | CC(C)c1onc(-c2c(Cl)cccc2Cl)c1COc1ccc(/C=C/C(=O)NCCC(=O)O)cc1 [KS-046, (E)-3-(3-(4-((3-(2,6-dichlorophenyl)-5-isopropylisoxazol-4-yl)methoxy)phenyl)acrylamido)propanoic acid]
23 | 1.2 | COC(=O)CCNC(=O)/C=C/c1ccc(OCc2c(-c3ccccc3)noc2C)cc1 [KS-045, methyl (E)-3-(3-(4-((5-methyl-3-phenylisoxazol-4-yl)methoxy)phenyl)acrylamido)propanoate]
24 | 0.93 | CCOC(=O)[C@@H](NC(=O)/C=C/c1ccc(OCc2c(-c3ccccc3)noc2C)cc1)C(C)C [KS-033, ethyl (E)-(3-(4-((5-methyl-3-phenylisoxazol-4-yl)methoxy)phenyl)acryloyl)-L-valinate]
25 | 0.9 | Cc1onc(-c2ccccc2)c1COc1ccc(/C=C/C(=O)N[C@H](C)C(=O)O)cc1 [KS-054, (E)-(3-(4-((5-methyl-3-phenylisoxazol-4-yl)methoxy)phenyl)acryloyl)-D-alanine]
26 | 1.39 | O=C(O)CNC(=O)/C=C/c1ccc(OCc2cccc([N+](=O)[O-])c2)cc1 [KS-020, (E)-(3-(4-((3-nitrobenzyl)oxy)phenyl)acryloyl)glycine]
27 | 1.24 | Cc1onc(-c2ccccc2)c1COc1ccc(/C=C/C(=O)N[C@H](C(=O)O)C(C)C)cc1 [KS-036, (E)-(3-(4-((5-methyl-3-phenylisoxazol-4-yl)methoxy)phenyl)acryloyl)-L-valine]
28 | 1.13 | Cc1onc(-c2ccccc2)c1COc1ccc(/C=C/C(=O)NCCC(=O)O)cc1 [KS-048, (E)-3-(3-(4-((5-methyl-3-phenylisoxazol-4-yl)methoxy)phenyl)acrylamido)propanoic acid]
29 | 1.68 | Cc1onc(-c2ccccc2)c1COc1ccc(/C=C/C(=O)NCC(=O)O)cc1 [KS-024, (E)-(3-(4-((5-methyl-3-phenylisoxazol-4-yl)methoxy)phenyl)acryloyl)glycine]
30 | 10 | COC(=O)CCNC(=O)/C=C/c1ccc(OCc2c(-c3c(Cl)cccc3Cl)noc2C(C)C)cc1 [KS-043, methyl (E)-3-(3-(4-((3-(2,6-dichlorophenyl)-5-isopropylisoxazol-4-yl)methoxy)phenyl)acrylamido)propanoate]
31 | 9.55 | COC(=O)[C@@H](C)NC(=O)/C=C/c1ccc(OCc2c(-c3c(Cl)cccc3Cl)noc2C(C)C)cc1 [KS-049, methyl (E)-(3-(4-((3-(2,6-dichlorophenyl)-5-isopropylisoxazol-4-yl)methoxy)phenyl)acryloyl)-D-alaninate]

same assay, conditions: statement on Table 4 data

Row | FXR activating effect compared with GW4064 | Compound
32 | superior to GW4064 | CC(C)c1onc(-c2c(Cl)cccc2Cl)c1COc1ccc(/C=C/C(=O)N[C@@H](Cc2ccccc2)C(=O)O)cc1 [KS-040, (E)-(3-(4-((3-(2,6-dichlorophenyl)-5-isopropylisoxazol-4-yl)methoxy)phenyl)acryloyl)-L-phenylalanine]
33 | superior to GW4064 | CCOC(=O)[C@H](C)NC(=O)/C=C/c1ccc(OCc2c(-c3c(Cl)cccc3Cl)noc2C(C)C)cc1 [KS-025, ethyl (E)-(3-(4-((3-(2,6-dichlorophenyl)-5-isopropylisoxazol-4-yl)methoxy)phenyl)acryloyl)-L-alaninate]
34 | superior to GW4064 | CC(C)c1onc(-c2c(Cl)cccc2Cl)c1COc1ccc(/C=C/C(=O)NCCC(=O)O)cc1 [KS-046, (E)-3-(3-(4-((3-(2,6-dichlorophenyl)-5-isopropylisoxazol-4-yl)methoxy)phenyl)acrylamido)propanoic acid]
35 | superior to GW4064 | COC(=O)CCNC(=O)/C=C/c1ccc(OCc2c(-c3c(Cl)cccc3Cl)noc2C(C)C)cc1 [KS-043, methyl (E)-3-(3-(4-((3-(2,6-dichlorophenyl)-5-isopropylisoxazol-4-yl)methoxy)phenyl)acrylamido)propanoate]
36 | superior to GW4064 | COC(=O)[C@@H](C)NC(=O)/C=C/c1ccc(OCc2c(-c3c(Cl)cccc3Cl)noc2C(C)C)cc1 [KS-049, methyl (E)-(3-(4-((3-(2,6-dichlorophenyl)-5-isopropylisoxazol-4-yl)methoxy)phenyl)acryloyl)-D-alaninate]
